Results published in ChEMBL document CHEMBL1201862, “PubChem BioAssay data set” (2004).
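Briefly, cells in 96-well plates were exposed to five compound concentrations for 48 h, and endpoints were estimated by linear interpolation. GI50 is the concentration that inhibits growth by half.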 Activity calls are given as the source filed them. No stated cut-off is given here; in the data, active = GI50 up to about 1.1 µM and inactive = higher.

Legend:
Assay in all cases: growth of human tumour cells (NCI), 48 h
IGROV-1 = system: IGROV-1
UACC-62 = system: UACC-62
NCI/ADR-RES = system: NCI/ADR-RES
SK-MEL-5 = system: SK-MEL-5
NCI-H522 = system: NCI-H522
HT-29 = system: HT-29
SK-OV-3 = system: SK-OV-3
SF-268 = system: SF-268
HCT-15 = system: HCT-15
Malme-3M = system: Malme-3M
TK-10 = system: TK-10
K562 = system: K562
NCI-H23 = system: NCI-H23
MOLT-4 = system: MOLT-4
M14 = system: M14
COLO 205 = system: COLO 205
KM12 = system: KM12
Hs-578T = system: Hs-578T
NCI-H226 = system: NCI-H226
OVCAR-3 = system: OVCAR-3
HL-60 = system: HL-60
RXF 393 = system: RXF 393
UACC-257 = system: UACC-257
U-251 = system: U-251
MCF7 = system: MCF7
T47D = system: T47D
ACHN = system: ACHN
NCI-H460 = system: NCI-H460
MDA-MB-435 = system: MDA-MB-435
SN12C = system: SN12C
SNB-19 = system: SNB-19
SNB-75 = system: SNB-75
OVCAR-8 = system: OVCAR-8
HCT-116 = system: HCT-116
SK-MEL-28 = system: SK-MEL-28
SK-MEL-2 = system: SK-MEL-2
PC-3 = system: PC-3
UO-31 = system: UO-31
OVCAR-4 = system: OVCAR-4
OVCAR-5 = system: OVCAR-5
SF-295 = system: SF-295
SW-620 = system: SW-620
786-0 = system: 786-0
MDA-MB-231 = system: MDA-MB-231
CAKI-1 = system: CAKI-1
HOP-92 = system: HOP-92
HOP-62 = system: HOP-62
DU-145 = system: DU-145
SR = system: SR
SF-539 = system: SF-539
A549 = system: A549
CCRF-CEM = system: CCRF-CEM
EKVX = system: EKVX
HCC 2998 = system: HCC 2998
RPMI-8226 = system: RPMI-8226
LOX IMVI = system: LOX IMVI
MDA-N = system: MDA-N

## O=C(Nc1ccc(N=C=S)cc1Cl)c1cc(Br)cc(Br)c1O
IGROV-1
  GI50: 19.4 µM (inactive)
UACC-62
  GI50: 18.9 µM (inactive)
NCI/ADR-RES
  GI50: 24.2 µM (inactive)
SK-MEL-5
  GI50: 23.9 µM (inactive)
NCI-H522
  GI50: 31.3 µM (inactive)
HT-29
  GI50: 19.8 µM (inactive)
SK-OV-3
  GI50: 42.9 µM (inactive)
SF-268
  GI50: 36.9 µM (inactive)
HCT-15
  GI50: 16.4 µM
Malme-3M
  GI50: 37.8 µM (inactive)
TK-10
  GI50: 27.9 µM (inactive)
K562
  GI50: 32.8 µM (inactive)
NCI-H23
  GI50: 26.7 µM (inactive)
MOLT-4
  GI50: 24.2 µM (inactive)
M14
  GI50: 33.7 µM (inactive)
COLO 205
  GI50: 27.2 µM (inactive)
KM12
  GI50: 27 µM (inactive)
Hs-578T
  GI50: 25.6 µM (inactive)
NCI-H226
  GI50: 18.5 µM (inactive)
OVCAR-3
  GI50: 36.7 µM (inactive)
HL-60
  GI50: 34.5 µM (inactive)
RXF 393
  GI50: 43.9 µM (inactive)
UACC-257
  GI50: 21.4 µM (inactive)
U-251
  GI50: 22.2 µM (inactive)
MCF7
  GI50: 31.5 µM (inactive)
T47D
  GI50: 39.7 µM (inactive)
ACHN
  GI50: 27 µM (inactive)
NCI-H460
  GI50: 32.6 µM (inactive)
MDA-MB-435
  GI50: 28.1 µM (inactive)
SN12C
  GI50: < 0.01 µM (active)
SNB-19
  GI50: 24.6 µM (inactive)
SNB-75
  GI50: 31.1 µM (inactive)
OVCAR-8
  GI50: 18.2 µM (inactive)
HCT-116
  GI50: 16.3 µM (inactive)
SK-MEL-28
  GI50: 30.4 µM (inactive)
SK-MEL-2
  GI50: 31.6 µM (inactive)
PC-3
  GI50: 19 µM (inactive)
UO-31
  GI50: 30.3 µM (inactive)
OVCAR-4
  GI50: 27.1 µM (inactive)
OVCAR-5
  GI50: 23.7 µM (inactive)
SF-295
  GI50: 31.1 µM (inactive)
SW-620
  GI50: 27.3 µM (inactive)
786-0
  GI50: 26.3 µM (inactive)
MDA-MB-231
  GI50: 21.5 µM (inactive)
CAKI-1
  GI50: 43.1 µM (inactive)
HOP-92
  GI50: 14.1 µM (inactive)
HOP-62
  GI50: 30.6 µM (inactive)
DU-145
  GI50: 15.9 µM (inactive)
SR
  GI50: 28.6 µM (inactive)
SF-539
  GI50: 23.9 µM (inactive)
A549
  GI50: 25.8 µM (inactive)

## NC(CCOCCP(=O)(O)CCOCCC(N)C(=O)O)C(=O)O (centres undefined)
IGROV-1
  GI50: > 100 µM (inactive)
UACC-62
  GI50: > 100 µM (inactive)
NCI/ADR-RES
  GI50: > 100 µM (inactive)
SK-MEL-5
  GI50: > 100 µM (inactive)
NCI-H522
  GI50: > 100 µM (inactive)
HT-29
  GI50: > 100 µM (inactive)
SK-OV-3
  GI50: > 100 µM (inactive)
SF-268
  GI50: > 100 µM (inactive)
HCT-15
  GI50: > 100 µM
TK-10
  GI50: > 100 µM (inactive)
K562
  GI50: > 100 µM (inactive)
CCRF-CEM
  GI50: > 100 µM (inactive)
NCI-H23
  GI50: > 100 µM (inactive)
EKVX
  GI50: > 100 µM (inactive)
MOLT-4
  GI50: > 100 µM (inactive)
M14
  GI50: > 100 µM (inactive)
COLO 205
  GI50: > 100 µM (inactive)
HCC 2998
  GI50: > 100 µM (inactive)
KM12
  GI50: > 100 µM (inactive)
Hs-578T
  GI50: > 100 µM (inactive)
OVCAR-3
  GI50: > 100 µM (inactive)
HL-60
  GI50: > 100 µM (inactive)
RXF 393
  GI50: > 100 µM (inactive)
UACC-257
  GI50: > 100 µM (inactive)
U-251
  GI50: > 100 µM (inactive)
MCF7
  GI50: > 100 µM (inactive)
T47D
  GI50: > 100 µM (inactive)
ACHN
  GI50: > 100 µM (inactive)
NCI-H460
  GI50: > 100 µM (inactive)
MDA-MB-435
  GI50: > 100 µM (inactive)
SN12C
  GI50: > 100 µM (inactive)
SNB-19
  GI50: > 100 µM (inactive)
SNB-75
  GI50: > 100 µM (inactive)
OVCAR-8
  GI50: > 100 µM (inactive)
HCT-116
  GI50: > 100 µM (inactive)
SK-MEL-28
  GI50: > 100 µM (inactive)
SK-MEL-2
  GI50: > 100 µM (inactive)
UO-31
  GI50: > 100 µM (inactive)
OVCAR-4
  GI50: > 100 µM (inactive)
OVCAR-5
  GI50: > 100 µM (inactive)
SF-295
  GI50: > 100 µM (inactive)
SW-620
  GI50: > 100 µM (inactive)
MDA-MB-231
  GI50: > 100 µM (inactive)
CAKI-1
  GI50: > 100 µM (inactive)
HOP-92
  GI50: > 100 µM (inactive)
RPMI-8226
  GI50: > 100 µM (inactive)
DU-145
  GI50: > 100 µM (inactive)
SR
  GI50: > 100 µM (inactive)
SF-539
  GI50: > 100 µM (inactive)
A549
  GI50: > 100 µM (inactive)

## CCOC(=O)N1CCC2C(=C(C)C(C)C3=C2C(=O)c2ccccc2C3=O)C1 (centres undefined)
IGROV-1
  GI50: > 10 µM (inactive)
UACC-62
  GI50: 4.41 µM (inactive)
SK-MEL-5
  GI50: 1.77 µM (inactive)
HT-29
  GI50: 4.07 µM (inactive)
SK-OV-3
  GI50: > 10 µM (inactive)
SF-268
  GI50: > 10 µM (inactive)
HCT-15
  GI50: 3.88 µM
Malme-3M
  GI50: 1.82 µM (inactive)
TK-10
  GI50: > 10 µM (inactive)
K562
  GI50: 3.08 µM (inactive)
CCRF-CEM
  GI50: 9.44 µM (inactive)
NCI-H23
  GI50: 2.76 µM (inactive)
EKVX
  GI50: > 10 µM (inactive)
MOLT-4
  GI50: 4.6 µM (inactive)
M14
  GI50: 4.73 µM (inactive)
COLO 205
  GI50: 3.33 µM (inactive)
HCC 2998
  GI50: 5.19 µM (inactive)
KM12
  GI50: 5.81 µM (inactive)
HL-60
  GI50: 2.07 µM (inactive)
RXF 393
  GI50: > 10 µM (inactive)
UACC-257
  GI50: 3.29 µM (inactive)
MCF7
  GI50: 4.21 µM (inactive)
T47D
  GI50: 9.55 µM (inactive)
MDA-MB-435
  GI50: 2.25 µM (inactive)
SN12C
  GI50: 3.86 µM (inactive)
SNB-75
  GI50: 3.75 µM (inactive)
OVCAR-8
  GI50: 6.18 µM (inactive)
SK-MEL-28
  GI50: 5.05 µM (inactive)
PC-3
  GI50: 4.4 µM (inactive)
OVCAR-4
  GI50: > 10 µM (inactive)
SF-295
  GI50: 3.82 µM (inactive)
SW-620
  GI50: 3.61 µM (inactive)
LOX IMVI
  GI50: 3.61 µM (inactive)
786-0
  GI50: 4.61 µM (inactive)
MDA-MB-231
  GI50: 4.07 µM (inactive)
CAKI-1
  GI50: 4.73 µM (inactive)
HOP-92
  GI50: 5.41 µM (inactive)
RPMI-8226
  GI50: 3.79 µM (inactive)
HOP-62
  GI50: 4.1 µM (inactive)
MDA-N
  GI50: 3.33 µM (inactive)
DU-145
  GI50: 2.45 µM (inactive)
SR
  GI50: 3.8 µM (inactive)
A549
  GI50: 4.3 µM (inactive)
